Earlier results, collected in US20080311191A1, “Multi-Layer Tablets and Bioadhesive Dosage Forms” (priority 2004, published 2008).
Where two headings read alike, the source gives them in different places.

Key:
[1] = not given; remark: listed apart in the source

Structure (SMILES) | water solubility | GI permeability [1] | water solubility [1] | solubility in water at pH<3.5 ([1]; pH<3.5)
Nc1nc2c(ncn2COCCO)c(=O)[nH]1 [Acyclovir, acyclovir] | moderate |  |  | 
CCC(C)n1ncn(-c2ccc(N3CCN(c4ccc(OCC5COC(Cn6cncn6)(c6ccc(Cl)cc6Cl)O5)cc4)CC3)cc2)c1=O (stereo not shown) [Itraconazole, itraconazole] |  | good | negligible | slightly soluble
